Reference: patent US20250108100A1, “C-TERMINAL FRAGMENT OF APOLIPOPROTEIN E AND APPLICATION THEREOF IN INHIBITING y-SECRETASE ACTIVITY” (SYNPHATEC (SHANGHAI) BIOPHARMACEUTICAL TECHNOLOGY CO., LTD., priority 2022, published 2025)
“Also recorded” adds a separate entry of the source.

Legend:
[1] = tested on: APP co-expressed in mouse neuron cell line N2A; assay: α-CTF produced by APP co-expressed in N2A cells (Western blot); format: cell-based; conditions: Western blot, vs GFP control
Procedure: Plasmids were transfected in HEK 293T or N2A cells for 36-48 hours and then lysed in cell lysis buffer [10% 1M tris-HCl (pH=6.8), 4% SDS, 20% glycerol, 0.01% bromophenol blue]. Lysates were shaken at room temperature for 10 min, then boiled for 10 min, and centrifuged at 12,000×g for 10 min. Proteins were run on 8% or 12% Tris-glycine SDS-PAGE and transferred to PVDF membranes (Life Technologies). Samples were incubated overnight at 4° C. with primary antibody diluted in 5% BSA buffer (in 1×TBST). After washing 3 times with 1×TBST, they were incubated with secondary antibody diluted in 5% BSA buffer (in 1×TBST) for 2 hours at room temperature. Finally, after washing 3 times with 1×TBST, the signal was detected by ECL Western blotting substrate (Solarbio, PE0010).
Data were analyzed by GraphPad Prism software (v6) using unpaired, paired, or one-sample t-tests. Aβ40 and Aβ42 levels were normalized to the corresponding GFP controls. α-CTF levels were normalized to FL-APP and corresponding GFP controls. All data are represented as mean±SEM. Statistical significance was defined as p<0.05. One, two, three and four stars (*) in the graph indicate p-values <0.05, <0.01, <0.001 and <0.0001, respectively.

[2] = tested on: primary cultured mouse hippocampal or cortical neurons; assay: Endogenous Aβ40 in primary cultured mouse cortical or hippocampal neurons (lentivirus, ELISA); format: cell-based; conditions: primary cultured mouse neurons; lentivirus; vs GFP control
Procedure: Primary cultured neurons were derived from the cortex or hippocampus of 16-day embryonic mice. The mouse cortex or hippocampus was obtained under a stereoscope, and was digested at 37° C. for 10 minutes with 20 U/ml papain (Worthington Company). After digestion, the neurons that exist in single-cell form were seeded with 100,000 neurons per well (24-well plate); the neurons were cultured in the neuron culture medium (Neurobasal medium; ThermoFisher Company) containing 2% B27 (ThermoFisher Company) and 1% penicillin/streptomycin; the fresh culture medium was changed once a week.
The experiment was performed according to the standard procedure in the ELISA analysis kit of Invitrogen Company. • a) The target protein was expressed in HEK 293T cell line. Cells were subcultured one day before transfection, and transfection was performed when the degree of cell adhesion reached 70%-80%. […]
48 hours after transfection of HEK 293T cells and N2A cells, or 4.5 days after lentivirus infection of neurons, media and lysates were collected. Aβ40 and Aβ42 in the culture medium and cell lysates were detected by an Aβ ELISA kit as indicated in the protocol. […]

5×FAD mice = assay: Distribution of neuronally expressed ApoE around amyloid plaques in 5×FAD mice (immunofluorescence); format: in vivo, mouse; conditions: lentiviral vectors
Procedure: Mice were anesthetized with isoflurane and perfused with 4% PFA. Dissected mouse brains were fixed overnight in 4% PFA and cryoprotected overnight in 30% sucrose. A cryostat (Leica CM3050S) was used to obtain frozen brain slices ([…]) from fixed and cryoprotected mouse brains. Floating slices were washed 3 times with 1×PBS and then permeabilized with 0.5% Triton-X in 1×PBS for 30 minutes. After blocking with 5% BSA in 1×PBS at room temperature for 1 h, the slices were incubated overnight at 4° C. in 5% BSA (in 1×PBS) buffer comprising the primary antibody. Slices were washed 3 times with 1×PBS and incubated with secondary antibody diluted in 5% BSA (1×PBS) buffer for 1 hour at room temperature. Samples were then washed 3 times with 1×PBS and mounted with Prolong Gold Antifade Mountant (Life Technology).
After being deeply anesthetized with isoflurane, mice (5 weeks old) were placed in a stereotaxic apparatus (RWD Instruments). The zero point (x, y, z, 0, 0, 0) is Bregma. Lentivirus (lentivirus-GFP, lentivirus-ApoE and lentivirus-ApoE-IRES-GFP) and AAV (AAV2/9-hSyn-EGFP-WPRE-pA and AAV2/9-hSyn-ApoECT; purchased from Shanghai Taitool Bioscience Co. Ltd.) were injected into the cortex (x, y, z, +/−1.6, 0, −1) or hippocampus (x, y, z, +/−1.5, −2, −1.5), injected 1 ul on each injection site. The mice were then returned to their cages for rehabilitation after surgery.

ApoE2: human apolipoprotein E2, full-length 299 amino acid residues, SEQ ID NO: 12
α-CTF produced by co-expressed APP [1]: significantly increased the α-CTF levels | endogenously produced Aβ40 [2]: can reduce endogenously produced Aβ40; also recorded: could reduce the endogenous Aβ40 | accumulation around amyloid plaques (5×FAD mice): a similar distribution pattern was detected around amyloid plaques
